Measured values from ChEMBL document CHEMBL4196134, “Enantiomeric Pairs of Meroterpenoids with Diverse Heterocyclic Systems from Rhododendron nyingchiense” (J Nat Prod, 2018).

biological target: T1, Tyrosine-protein phosphatase non-receptor type 1 (Homo sapiens, UniProt P18031); experiment: Inhibition of recombinant human PTP1B catalytic domain ([…]) expressed in Escherichia coli BL21-codon plus (DE3) using pNPP as substrate measured continuously for 3 mins by colorimetric method
T1 sequence (P18031 whole entry): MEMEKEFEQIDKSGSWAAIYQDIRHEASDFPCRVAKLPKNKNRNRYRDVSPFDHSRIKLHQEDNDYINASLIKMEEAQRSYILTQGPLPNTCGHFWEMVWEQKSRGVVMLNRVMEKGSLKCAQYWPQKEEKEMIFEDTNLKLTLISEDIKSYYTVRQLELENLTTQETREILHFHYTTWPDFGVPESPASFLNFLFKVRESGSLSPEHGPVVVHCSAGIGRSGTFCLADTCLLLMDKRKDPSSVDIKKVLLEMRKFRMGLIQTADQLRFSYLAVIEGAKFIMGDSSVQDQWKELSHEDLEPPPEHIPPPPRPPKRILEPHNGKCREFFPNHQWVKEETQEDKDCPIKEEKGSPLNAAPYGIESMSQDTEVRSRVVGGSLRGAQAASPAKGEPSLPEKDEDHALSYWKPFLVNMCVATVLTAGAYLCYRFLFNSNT

In order of rising IC50:
1. CC(C)=CCC/C(C)=C/CC/C(C)=C/Cc1c(O)cc(C)cc1O [GRIFOLIN]  5.7 µM
2. C=C(C)[C@H]1CC[C@@]2(C)Oc3cc(O)cc(C)c3[C@@H]1[C@@H]2O  29 µM
3. CC1=CC(=O)C=C2O[C@@]3(C)CC[C@H](C(C)(C)O)[C@H]3[C@H]3O[C@@]123  38.1 µM
4. Cc1cc(O)cc2c1O[C@H]1OC(C)(C)[C@@H]3CC[C@@](C)(O2)[C@@H]13  43.6 µM
5. C=C(C)[C@@H]1CC[C@]2(C)Oc3cc(O)cc(C)c3[C@H]1[C@H]2O  48.1 µM
6. Cc1cc(O)cc2c1[C@H]1[C@@H]3[C@@H](CC[C@]3(C)O2)C1(C)C  58.2 µM
7. C=C(C)[C@@H]1CC[C@]2(C)Oc3cc(O)cc(C)c3C[C@H]12  61 µM
